Results taken from patent publication US20240108623A1, “METHODS OF TREATING CANCER WITH POZIOTINIB” (BOARD OF REGENTS, THE UNIVERSITY OF TEXAS SYSTEM, priority 2021, published 2024).

Legend:
Assay in all cases: Ba/F3 cell drug screening, Cell Titer Glo
Type in all cases: cell-based
EGFR D761N = target: T1, EGFR D761N (Homo sapiens, UniProt P00533, D761N); details: Ba/F3 cells expressing EGFR D761N; 72 hours
T1 construct: expressed in transfected cells; host or cells: Ba/F3 (retroviral, pBabe-Puro based vector)
Experimental: (§1) Ba/F3 cell generation, drug screening, and IC50 approximations. Ba/F3 cells were obtained as a gift from Dr. Gordon Mills (MD Anderson Cancer Center), and maintained in RPMI (Sigma) containing 10% FBS, 1% penicillin/streptomycin, and 10 ng/ml recombinant mIL-3 (R&D Biosystems). To establish stable Ba/F3 cell lines, Ba/F3 cells were transduced with retroviruses containing mutant EGFR plasmids for 12-24 hours. Retroviruses were generated using Lipofectamine 2000 (Invitrogen) transfections of Phoenix 293T-ampho cells (Orbigen) with pBabe-Puro based vectors listed below in Table 6. Vectors were generated by GeneScript or Bioinnovatise using parental vectors from Addgene listed below in Table 6.
(§2) After 48-72 hours of transduction, 2 μg/ml puromycin (Invitrogen) was added to Ba/F3 cell lines in complete RPMI. To select for EGFR positive cell lines, cells were stained with PE-EGFR (Biolegend) and sorted by FACS. After sorting, EGFR positive cells were maintained in RPMI containing 10% FBS, 1% penicillin/streptomycin, and 1 ng/ml EGF to support cell viability. Drug screening was performed as previously described^41,42. Shortly, cells were plated in 384-well plates (Greiner Bio-One) at 2000-3000 cells per well in technical triplicate. Seven different concentrations of TKIs or DMSO vehicle were added to reach a final volume of 40 μL per well. After 72 hours, 11p L of Cell Titer Glo (Promega) was added to each well. Plates were incubated for a minimum of 10 minutes, and bioluminescence was determined using a FLUOstar OPTIMA plate reader (BMG LABTECH). Raw bioluminescence values were normalized to DMSO control treated cells, and values were plotted in GraphPad Prism. Non-linear regressions were used to fit the normalized data with a variable slope, and IC50 values were determined by GraphPad prism by interpolation of concentrations at 50% inhibition. Drug screens were performed in technical triplicate on each plate and either duplicate or triplicate biological replicates. Mutant to WT ratios (Mut/WT) for each drug were calculated by dividing the IC50 values of mutant cell lines by the average IC50 value of Ba/F3 cells expressing WT EGFR supplemented with 10 ng/ml EGF for each drug. Statistical differences between groups were determined by ANOVA as described in the figure legends.

EGFR E709A G719S = target: T2, EGFR E709A G719S (Homo sapiens, UniProt P00533, E709A/G719S); details: Ba/F3 cells expressing EGFR E709A G719S; 72 hours
T2 construct: expressed in transfected cells; host or cells: Ba/F3 (retroviral transduction, pBabe-Puro based vectors)
Experimental: as §1, §2

EGFR E709K = target: T3, EGFR E709K (Homo sapiens, UniProt P00533, E709K); details: Ba/F3 cells expressing EGFR E709K; 72 hours
T3 construct: expressed in transfected cells; host or cells: Ba/F3 (retroviral transduction, pBabe-Puro based vectors)
Experimental: as §1, §2

EGFR E709K L858R = target: T4, EGFR E709K L858R (Homo sapiens, UniProt P00533, E709K/L858R); details: Ba/F3 cells expressing EGFR E709K L858R; 72 hours
T4 construct: expressed in transfected cells; host or cells: Ba/F3 (retroviral, pBabe-Puro based vector)
Experimental: as §1, §2

EGFR Ex19del = target: T5, EGFR Ex19del (Homo sapiens, UniProt P00533, DEL746-750); details: Ba/F3 cells expressing EGFR Ex19del; 72 hours
T5 construct: expressed in transfected cells; host or cells: Ba/F3 (retroviral, pBabe-Puro based vector)
Experimental: as §1, §2

EGFR K754E = target: T6, EGFR K754E (Homo sapiens, UniProt P00533, K754E); details: Ba/F3 cells expressing EGFR K754E; 72 hours
T6 construct: expressed in transfected cells; host or cells: Ba/F3 (retroviral, pBabe-Puro based vector)
Experimental: as §1, §2

EGFR L858R G724S = target: T7, EGFR L858R G724S (Homo sapiens, UniProt P00533, G724S/L858R); details: Ba/F3 cells expressing EGFR L858R G724S; 72 hours
T7 construct: expressed in transfected cells; host or cells: Ba/F3 (murine pro-B cells), retroviral transduction with pBabe-Puro based vectors
Experimental: as §1, §2

EGFR L858R L718Q = target: T8, EGFR L858R L718Q (Homo sapiens, UniProt P00533, L718Q/L858R); details: Ba/F3 cells expressing EGFR L858R L718Q; 72 hours
T8 construct: host or cells: Ba/F3 (retroviral transduction, pBabe-Puro based vectors)
Experimental: as §1, §2

EGFR L858R S784F = target: T9, EGFR L858R S784F (Homo sapiens, UniProt P00533, L858R/S784F); details: Ba/F3 cells expressing EGFR L858R S784F; 72 hours
T9 construct: expressed in transfected cells; host or cells: Ba/F3 (retroviral, pBabe-Puro based vector; created by GeneScript from EGFR L858R)
Experimental: as §1, §2

EGFR L858R/C797S = target: T10, EGFR L858R/C797S (Homo sapiens, UniProt P00533, C797S/L858R); details: Ba/F3 cells expressing EGFR L858R/C797S; 72 hours
T10 construct: expressed in transfected cells; host or cells: Ba/F3 (retroviral transduction, pBabe-Puro based vectors)
Experimental: as §1, §2

EGFR L858R/T790M = target: T11, EGFR L858R/T790M (Homo sapiens, UniProt P00533, L858R/T790M); details: Ba/F3 cells expressing EGFR L858R/T790M; 72 hours
T11 construct: expressed in transfected cells; host or cells: Ba/F3 (retroviral transduction, pBabe-Puro based vectors)
Experimental: as §1, §2

EGFR L858R/T790M/C797S = target: T12, EGFR L858R/T790M/C797S (Homo sapiens, UniProt P00533, C797S/L858R/T790M); details: Ba/F3 cells expressing EGFR L858R/T790M/C797S; 72 hours
T12 construct: expressed in transfected cells; host or cells: Ba/F3 (retroviral transduction, pBabe-Puro based vectors)
Experimental: as §1, §2

EGFR N771dupN = target: T13, EGFR N771dupN (Homo sapiens, UniProt P00533, DUP771-771); details: Ba/F3 cells expressing EGFR N771dupN; 72 hours
T13 construct: expressed in transfected cells; host or cells: Ba/F3 (retroviral, pBabe-Puro based vector)
Experimental: as §1, §2

EGFR R776C = target: T14, EGFR R776C (Homo sapiens, UniProt P00533, R776C); details: Ba/F3 cells expressing EGFR R776C; 72 hours
T14 construct: host or cells: Ba/F3 (retroviral transduction, pBabe-Puro based vectors)
Experimental: as §1, §2

EGFR S768I/V769L = target: T15, EGFR S768I/V769L (Homo sapiens, UniProt P00533, S768I/V769L); details: Ba/F3 cells expressing EGFR S768I/V769L; 72 hours
T15 construct: host or cells: Ba/F3 (retroviral transduction, pBabe-Puro based vectors)
Experimental: as §1, §2

EGFR S768dupSVD = target: T16, EGFR S768dupSVD (Homo sapiens, UniProt P00533, DUP768-770); details: Ba/F3 cells expressing EGFR S768dupSVD; 72 hours
T16 construct: expressed in transfected cells; host or cells: Ba/F3 (retroviral, pBabe-Puro based vector)
Experimental: as §1, §2

C=CC(=O)N1CCC(Oc2cc3c(Nc4ccc(Cl)c(Cl)c4F)ncnc3cc2OC)CC1 [Poziotinib]
Response of Cells Comprising Classical-Like EGFR Mutations to Second-Generation TKIs (EGFR D761N): 0.007859
Response of Cells Comprising PACC EGFR Mutations to Second-Generation TKIs (EGFR E709A G719S): 0.01612
Response of Cells Comprising PACC EGFR Mutations to Second-Generation TKIs (EGFR E709K): 0.0379
Response of Cells Comprising Classical-Like EGFR Mutations to Second-Generation TKIs (EGFR E709K L858R): 0.005342
Response of Cells Comprising Classical-Like EGFR Mutations to Second-Generation TKIs (EGFR Ex19del): 0.07456
Response of Cells Comprising Classical-Like EGFR Mutations to Second-Generation TKIs (EGFR K754E): 0.009588
Response of Cells Comprising PACC EGFR Mutations to Second-Generation TKIs (EGFR L858R G724S): 0.0068
Response of Cells Comprising PACC EGFR Mutations to Second-Generation TKIs (EGFR L858R L718Q): 0.01623
Response of Cells Comprising Classical-Like EGFR Mutations to Second-Generation TKIs (EGFR L858R S784F): 0.1185
Response of Cells Comprising PACC EGFR Mutations to Second-Generation TKIs (EGFR L858R/C797S): 0.2299
Response of Cells Comprising T790M-like-S EGFR Mutations to Second-Generation TKIs (EGFR L858R/T790M): 2.414
Response of Cells Comprising T790M-like-R EGFR Mutations to Second-Generation TKIs (EGFR L858R/T790M/C797S): 935.3
Response of Cells Comprising Ex20ins EGFR Mutations to Poziotinib (EGFR N771dupN): 0.04003
Response of Cells Comprising PACC EGFR Mutations to Second-Generation TKIs (EGFR R776C): 0.03049
Response of Cells Comprising PACC EGFR Mutations to Second-Generation TKIs (EGFR S768I/V769L): 0.04206
Response of Cells Comprising Ex20ins EGFR Mutations to Poziotinib (EGFR S768dupSVD): 0.09327
